The target of the experiment is EncM (Streptomyces maritimus, UniProt Q9KHK2). Description: stopped-flow flavin reduction at […] nm, hyperbolic fit of kobs. The following applies: read-out: apparent Kd; EncM-Flox (oxidized, inactive flavin form), anaerobic, 4 °C, 0.1 M Tris-H2SO4 pH 7.5, 10% glycerol. The class given is biochemical.

With `NC(=O)C1=CN([C@@H]2O[C@H](COP(=O)(O)OP(=O)(O)OC[C@H]3O[C@@H](n4cnc5c(N)ncnc54)[C@H](O)[C@@H]3O)[C@@H](O)[C@H]2O)C=CC1` [NADH], the Kd is 9.3 ± 0.3 mM.

Take `NC(=O)C1=CN([C@@H]2O[C@H](COP(=O)(O)OP(=O)(O)OC[C@H]3O[C@@H](n4cnc5c(N)ncnc54)[C@H](OP(=O)(O)O)[C@@H]3O)[C@@H](O)[C@H]2O)C=CC1` [NADPH]: the Kd worked out at 0.26 ± 0.01 mM.

(Values after article PMC4720136 (Journal of the American Chemical Society, 2015).)
